Results published in patent US20260265195A1, “SARM1 MODULATORS, PREPARATIONS, AND USES THEREOF” (SIRONAX LTD, priority 2022, published 2026).

Target: T1, SARM1 (50-724) (Homo sapiens, UniProt Q6SZW1)
T1 construct: Purified SARM1 (50-724) with a final concentration of 2 nM
T1 sequence (Q6SZW1 50-724): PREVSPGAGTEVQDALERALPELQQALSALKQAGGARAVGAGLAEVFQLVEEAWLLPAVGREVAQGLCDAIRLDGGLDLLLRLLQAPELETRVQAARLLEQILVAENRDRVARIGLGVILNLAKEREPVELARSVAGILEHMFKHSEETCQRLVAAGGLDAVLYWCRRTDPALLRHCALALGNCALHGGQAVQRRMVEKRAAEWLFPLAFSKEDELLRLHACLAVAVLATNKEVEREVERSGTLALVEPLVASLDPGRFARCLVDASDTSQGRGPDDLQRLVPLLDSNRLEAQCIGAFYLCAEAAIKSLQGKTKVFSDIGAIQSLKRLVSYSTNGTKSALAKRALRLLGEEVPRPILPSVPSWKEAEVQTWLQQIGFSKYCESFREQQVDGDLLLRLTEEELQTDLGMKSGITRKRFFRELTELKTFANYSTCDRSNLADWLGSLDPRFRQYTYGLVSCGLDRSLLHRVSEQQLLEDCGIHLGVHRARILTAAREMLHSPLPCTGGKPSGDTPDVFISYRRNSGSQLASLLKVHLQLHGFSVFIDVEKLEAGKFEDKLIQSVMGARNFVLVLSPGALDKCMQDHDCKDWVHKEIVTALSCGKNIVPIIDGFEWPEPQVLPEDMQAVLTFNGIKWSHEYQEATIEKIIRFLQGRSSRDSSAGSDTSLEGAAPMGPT
Assay: SARM1 (50-724) enzymatic assay (NMN-activated NAD+ hydrolysis, LC-MS/MS readout)
Assay type: biochemical
Details: purified SARM1 (50-724) 2 nM, 200 μM NMN activator, 100 μM NAD+ substrate, 1 h at room temperature, read-out: IC50 (SARM1 inhibitory activity)
Procedure: Example II. SARM1 (50-724) Enzymatic Assay
An enzymatic assay was performed in a 384-well plate using Dulbecco's phosphate-buffered saline (PBS) as the reaction buffer. Purified SARM1 (50-724) with a final concentration of 2 nM was pre-incubated with a test compound at 1% DMSO final assay concentration for 15 min at room temperature. The reaction was initiated by adding a mixture of 200 μM nicotinamide mononucleotide (NMN) as activator and 100 μM NAD^+ as substrate. After 1 h of incubation at room temperature, the reaction was terminated with 10 times volume of 70% acetonitrile, then centrifuged at 3800 rpm for 10 min. The samples were analyzed using LC-MS/MS after diluted to a proper concentration by 10 mM ammonium acetate (pH 9.75).
ND means “not determined.”

| SMILES | IC50 [nM] |
| --- | --- |
| O=C(c1nc2cc(C(F)(F)F)ccc2[nH]1)N(CCO)[C@@H]1CCCC[C@H]1OC(F)(F)F (racemic) [Compound 60, N-(2-hydroxyethyl)-N-((1R,2R)-2-(trifluoromethoxy)cyclohexyl)-5-(trifluoromethyl)-1H-benzo[d]imidazole-2-carboxamide] | 101 to 500 |
| O=C(c1nc2cc(C(F)(F)F)ccc2[nH]1)N(CC(O)CO)c1cccc(Cl)c1Cl (racemic) [Compound 131, N-(2,3-dichlorophenyl)-N-(2,3-dihydroxypropyl)-5-(trifluoromethyl)-1H-benzo[d]imidazole-2-carboxamide] | ≤ 100 |
| O=C(c1nc2cc(C(O)C3CC3)ccc2[nH]1)N(CCO)c1cccc(Cl)c1Cl (racemic) [Compound 162] | ≥ 1000 |
| CC1(C)OCC(CN(C(=O)c2nc3cc(C(F)(F)F)ccc3[nH]2)c2cccc(Cl)c2Cl)O1 (racemic) [Compound 173, N-(2,3-dichlorophenyl)-N-((2,2-dimethyl-1,3-dioxolan-4-yl)methyl)-5-(trifluoromethyl)-1H-benzo[d]imidazole-2-carboxamide] | ≤ 100 |
| CC(c1cn[nH]c1)c1ccc2[nH]c(C(=O)N(CCO)c3cccc(Cl)c3Cl)nc2c1 (racemic) [Compound 189] | ≤ 100 |
| O=C(c1nc2cc(Cl)cc(F)c2[nH]1)N(c1cccc(F)c1Cl)C1CCS(=O)(=O)C1 (racemic) [Compound 191] | ≤ 100 |
| O=C(c1nc2cc(C(F)(F)F)cc(F)c2[nH]1)N(c1cccc(F)c1Cl)C1CCS(=O)(=O)C1 (racemic) [Compound 192] | ≤ 100 |
| O=C(c1nc2cc(C3CCCO3)ccc2[nH]1)N(CCO)c1cccc(Cl)c1Cl (racemic) [Compound 196] | ≤ 100 |
| O=C(c1nc2cc(C(F)(F)F)ccc2[nH]1)N(c1cccc(F)c1Cl)C1CCS(=O)(=O)C1 (racemic) [Compound 228, N-(2-chloro-3-fluorophenyl)-N-(1,1-dioxidotetrahydrothiophen-3-yl)-5-(trifluoromethyl)-1H-benzo[d]imidazole-2-carboxamide] | ≤ 100 |
| C[S+]([O-])CCCN(C(=O)c1nc2cc(C(F)(F)F)ccc2[nH]1)c1cccc(F)c1Cl (racemic) [Compound 230, N-(2-chloro-3-fluorophenyl)-N-(3-(methylsulfinyl)propyl)-5-(trifluoromethyl)-1H-benzo[d]imidazole-2-carboxamide] | ≤ 100 |
| O=C1NC(CN(C(=O)c2nc3cc(C(F)(F)F)ccc3[nH]2)c2cccc(F)c2Cl)CO1 (racemic) [Compound 238, N-(2-chloro-3-fluorophenyl)-N-((2-oxooxazolidin-4-yl)methyl)-5-(trifluoromethyl)-1H-benzo[d]imidazole-2-carboxamide] | ≤ 100 |
| CN1CCC(N(C(=O)c2nc3cc(C(F)(F)F)ccc3[nH]2)c2cccc(F)c2Cl)C1=O (racemic) [Compound 240, N-(2-chloro-3-fluorophenyl)-N-(1-methyl-2-oxopyrrolidin-3-yl)-5-(trifluoromethyl)-1H-benzo[d]imidazole-2-carboxamide] | ≤ 100 |
| Cc1ccc2[nH]c(C(=O)N(C)c3cccc(Cl)c3Cl)c(CO)c2c1 [Compound 1, N-(2,3-dichlorophenyl)-3-(hydroxymethyl)-N,5-dimethyl-1H-indole-2-carboxamide] | ≤ 100 |
| Cc1ccc2[nH]c(C(=O)N(C)c3c(F)cccc3F)c(CO)c2c1 [Compound 2, N-(2,6-difluorophenyl)-3-(hydroxymethyl)-N,5-dimethyl-1H-indole-2-carboxamide] | 501 to 1000 |
| Cc1ccc2[nH]c(C(=O)N(C)c3ccc(C#N)cc3)c(CO)c2c1 [Compound 3, N-(4-cyanophenyl)-3-(hydroxymethyl)-N,5-dimethyl-1H-indole-2-carboxamide] | ≥ 1000 |
| Cc1ccc2[nH]c(C(=O)N(C)c3ccccn3)c(CO)c2c1 [Compound 4, 3-(hydroxymethyl)-N,5-dimethyl-N-(pyridin-2-yl)-1H-indole-2-carboxamide] | ≥ 1000 |

| SMILES | IC50 [nM] |
| --- | --- |
| Cc1ccc2[nH]c(C(=O)N(C)c3c(Cl)cccc3Cl)c(CO)c2c1 [Compound 5, N-(2,6-dichlorophenyl)-3-(hydroxymethyl)-N,5-dimethyl-1H-indole-2-carboxamide] | 101 to 500 |
| Cc1ccc2[nH]c(C(=O)N(C)c3ccccc3Cl)c(CO)c2c1 [Compound 6, N-(2-chlorophenyl)-3-(hydroxymethyl)-N,5-dimethyl-1H-indole-2-carboxamide] | 101 to 500 |
| Cc1ccc2[nH]c(C(=O)N(C)c3ccccc3C#N)c(CO)c2c1 [Compound 7, N-(2-cyanophenyl)-3-(hydroxymethyl)-N,5-dimethyl-1H-indole-2-carboxamide] | ≥ 1000 |
| Cc1ccc2[nH]c(C(=O)N(C)c3cccc(C#N)c3)c(CO)c2c1 [Compound 8, N-(3-cyanophenyl)-3-(hydroxymethyl)-N,5-dimethyl-1//-indole-2-carboxamide] | ≥ 1000 |
| Cc1ccc2[nH]c(C(=O)N(C)c3ccc(C#N)cc3Cl)c(CO)c2c1 [Compound 9, N-(2-chloro-4-cyanophenyl)-3-(hydroxymethyl)-N,5-dimethyl-1H-indole-2-carboxamide] | ≥ 1000 |
| Cc1ccc2[nH]c(C(=O)N(C)c3cccc(C(F)(F)F)c3)c(CO)c2c1 [Compound 10, 3-(hydroxymethyl)-N,5-dimethyl-N-(3-(trifluoromethyl)phenyl)-1H-indole-2-carboxamide] | ≥ 1000 |
| Cc1ccc2[nH]c(C(=O)N(C)c3ccc(Cl)c(C(F)(F)F)c3)c(CO)c2c1 [Compound 11, N-(4-chloro-3-(trifluoromethyl)phenyl)-3-(hydroxymethyl)-N,5-dimethyl-1H-indole-2-carboxamide] | ≥ 1000 |
| Cc1ccc2[nH]c(C(=O)N(C)c3ccc(Cl)c(Cl)c3)c(CO)c2c1 [Compound 12] | ≥ 1000 |
| COc1ccccc1N(C)C(=O)c1[nH]c2ccc(C)cc2c1CO [Compound 13, 3-(hydroxymethyl)-N-(2-methoxyphenyl)-N,5-dimethyl-1H-indole-2-carboxamide] | ≥ 1000 |
| Cc1ccc2[nH]c(C(=O)N(C)C3CCCC3)c(CC(N)=O)c2c1 [Compound 16, 3-(2-amino-2-oxoethyl)-N-cyclopentyl-N,5-dimethyl-1H-indole-2-carboxamide] | 501 to 1000 |
| Cc1ccc2c(CO)c(C(=O)N(C)C3CCCC3)[nH]c2c1 [Compound 17, N-cyclopentyl-3-(hydroxymethyl)-N,6-dimethyl-1H-indole-2-carboxamide] | ≥ 1000 |
| Cc1ccc2c(c1)c(CO)c(C(=O)N(C)C1C(C)CCC1C)n2C (stereo not shown) [Compound 18, N-(2,5-dimethylcyclopentyl)-3-(hydroxymethyl)-N,1,5-trimethyl-1H-indole-2-carboxamide] | ≥ 1000 |
| Cc1ccc2[nH]c(C(=O)N(C)c3cc(F)cc(F)c3)c(CO)c2c1 [Compound 19, N-(3,5-difluorophenyl)-3-(hydroxymethyl)-N,5-dimethyl-1H-indole-2-carboxamide] | ≥ 1000 |
| O=C(c1nc2cc(C(F)(F)F)ccc2[nH]1)N(CCO)c1cnccc1C(F)(F)F [Compound 20, N-(2-hydroxyethyl)-5-(trifluoromethyl)-N-(4-(trifluoromethyl)pyridin-3-yl)-1H-benzo[d]imidazole-2-carboxamide] | ≤ 100 |
| Cc1cccc2[nH]c(C(=O)N(C)C3CCCC3)c(CO)c12 [Compound 21, N-cyclopenty1-3-(hydroxymethyl)-N,4-dimethyl-1H-indole-2-carboxamide] | ≥ 1000 |
